Our source for the IC50 values is patent US7767659B2, “Synthesis of naturally occurring ecteinascidins and related compounds” (Pharma Mar, S.A., priority 2002, dated 2010).

Test in all cases: Inhibition of cell growth by counting cells
Type in all cases: cell-based

The test system of one assay is P-388 cells. Particulars: Mus musculus, 72 h; p388 cells, three days of incubation. An excerpt:
(§1) The finality of these assays is to interrupt the growth of a “in vitro” tumor cell culture by means a continued exhibition of the cells to the sample to be testing.
(§2) This form of the assay employs 24 well multidishes of 16 mm diameter (Bergeron, 1984; Schroeder, 1981). The tumor cell lines employed are: P-388 (ATCC CCL 46), suspension culture of a lymphoid neoplasm from a DBA/2 mouse; A-549 (ATCC CCL 185), monolayer culture of a human lung carcinoma; HT-29 (ATCC HTB-38), monolayer culture of a human colon carcinoma; MEL-28 (ATCC HTB-72), monolayer culture of a human melanoma and DU-145 (ATCC HTB-81), monolayer culture of a human prostate carcinoma.
(§3) Cells were maintained, in logarithmic phase of growth in Eagle's Minimum Essential Medium, with Earle's Balanced Salts, with non-essential amino acids, with 2.0 mM L-Glutamine, without sodium bicarbonate (EMEM/neaa), supplemented with 10% Fetal Calf Serum (FCS), 10^−2 M. sodium bicarbonate and 0.1 U/1 penicillin G+0.1 g/l streptomycin sulfate.
P-388 cells were seeded into 16 mm diameter wells at 1×10^4 cells per well in 1 ml aliquots of EMEM 5% FCS containing different concentrations of the sample to be tested. […]
For quantifying the activity, after the incubation time, cells are trypsinized and counted in a Coulter Counter ZM. […]

The next assay deals with A-549 cells. Particulars: Homo sapiens, 72 h; a549 cells, three days of incubation.
Excerpt: as §1, §2, §3
(§4) A-549, HT-29, MEL-28 and DU-145 cells were seeded into 16 mm diameter wells at 1×10^4 cells per well in 1 ml aliquots of EMEM 5% FCS containing different concentrations of the sample to be tested. A separate set of cultures without drug was seeded as control of growth, to ensure that cells remained in exponential phase of growth. All determinations are caring out in duplicate. After three days of incubation at 37° C., 5% CO2 in a 98% humid atmosphere cells were stained with 0.1% crystal violet. An approximately IC50 was determined by comparing the growth in wells with drug to the growth in wells control.
(§5) For quantifying the activity, after the incubation time, cells are trypsinized and counted in a Coulter Counter ZM. All counts (net cells per well), represent the average of duplicate wells. % G, percent of growth relative to cultures without drug.
(§6) For this technique, compounds which show IC50 values smaller than 1 μg/ml are selected to continue with further studies.

A further assay relates to HT-29 cells. The conditions noted are these: Homo sapiens, HT-29, 72 h; ht29 cells, three days of incubation.
Excerpt: as §1, §2, §3, §4, §5, §6

The test system of another assay is MEL-28 cells. Particulars: Homo sapiens, SK-MEL-28, 72 h; mel28 cells, three days of incubation.
Excerpt: as §1, §2, §3, §4, §5, §6

The test system of the next assay is DU-145 cells. Particulars: Homo sapiens, DU-145, 72 h; du145 cells, three days of incubation.
Excerpt: as §1, §2, §3, §4, §5, §6

A word on the IC50: it is the concentration that inhibits the measured activity by half. Read a high IC50 as lower potency. With `COc1c(C)cc2c(c1O)[C@@H]1C3[C@@H]4SCC(=O)C(=O)OC[C@@H](c5c6c(c(C)c(OC(C)=O)c54)OCO6)N3[C@@H](C#N)[C@H](C2)N1C` (stereo partly drawn) [compound 16], the IC50 with P-388 cells, in the assay with A-549 cells, in the assay on HT-29 cells and in the assay with MEL-28 cells was 16.3 nM in each case.

Regarding `COc1c(C)cc2c(c1O)[C@@H]1C3[C@@H]4SCC(NC(C)=O)C(=O)OC[C@@H](c5c6c(c(C)c(OC(C)=O)c54)OCO6)N3[C@@H](C#N)[C@H](C2)N1C` (stereo partly drawn) [compound 19], the 50% inhibitory concentration (IC50) with P-388 cells, with A-549 cells, in the assay with DU-145 cells, with HT-29 cells and in the assay on MEL-28 cells was 0.753 nM each time.
